EC50 data for 32 compounds are collected here from patent US11377425B1, “Small molecule modulators of IL-17” (LEO Pharma A/S, priority 2018, dated 2022).

The target in this test is T1, human IL-17AA (Homo sapiens, UniProt Q16552).
T1 construct: host or cells: HEK (human embryonic kidney) cells
T1 sequence (Q16552 24-155): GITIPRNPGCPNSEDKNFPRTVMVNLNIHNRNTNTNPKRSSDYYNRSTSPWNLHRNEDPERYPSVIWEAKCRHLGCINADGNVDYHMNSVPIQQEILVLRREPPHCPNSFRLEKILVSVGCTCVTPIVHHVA
The test can be described thus: IL-8 release assay in human epithelial keratinocytes adult (HEKa). It is filed as cell-based. The conditions noted are these: HEKa cells, 3 ng/mL HEK-human IL-17AA + 10 ng/mL human TNFalpha; read-out: Rel EC50 IL-8 release assay. The method, then: Example 138: IL-8 Release Assay in Human Epithelial Keratinocytes Adult (HEKa)
Keratinocytes were seeded at 3500 cells/well in 384-well ViewPlates (Perkin Elmer) in Epilife medium (Thermo Fisher) containing human keratinocyte growth supplement (HKGS) without hydrocortisone and incubated in a humid incubator at 37° C. 5% CO2, overnight. The following day growth medium was removed and 25 μl fresh Epilife medium added. 75 nL test compound in 100% DMSO was added into each well reserved for test compounds, by the use of acoustic pipetting. The remaining wells received an equal volume of DMSO only, as vehicle control, or terfenadine in DMSO, as a positive control for any cytotoxic compounds. Subsequently, another 25 μL Epilife medium was added to each well. Finally, wells containing test compounds and wells prepared to yield maximum stimulation received […] of 9 ng/mL recombinant, human embryonic kidney cell (HEK)-derived human IL-17AA+30 ng/mL human TNF-alpha, in Epilife medium. Wells prepared to define 100% inhibition of IL-17 effects received 25 μL of 30 ng/mL human TNF-alpha alone, in Epilife medium. Final concentrations were 3 ng/mL HEK-human IL-17AA+10 ng/mL human TNFalpha (maximum stimulation) and 10 ng/mL human TNFalpha alone (100% inhibition, Emax), respectively. Cells were incubated for 68-72 hours in the incubator. IL-8 released from the cells was measured by the use of a commercial homogenous time-resolved fluorescence (HTRF) assay (CisBio). 2 μL cell culture supernatant was transferred to a 384-well Proxiplate. 5 μL HTRF reagent was added and the plates incubated sealed in the dark for 3-22 hours at room temperature. Time-resolved fluorescence was read at 665 vs 620 nm, with excitation at 320 nm, and IL-8 levels calculated as percent of controls. Reduction of the amount of secreted IL-8 indicates decreased IL-17 signaling. Concentration response curves were fitted by the use of a four-parameter logistic equation. Relative IC50 and Emax were reported from curves showing acceptable fit (r^2>0.9). Cytotoxicity was measured in the cell-containing Viewplates following addition of 7 μL PrestoBlue (Thermo Fisher) and incubation for 2.5-3 hours at room temperature, by measuring fluorescence at 615 nm (excitation at 535 nm). Fluorescence was directly proportional to the amount of metabolic activity. Reduction of fluorescence signal indicated cytotoxicity.
Compounds of the present invention were tested in the IL-8 release assay in human epithelial keratinocytes.
Compounds having a Relative EC50 of X; wherein X<100 nM; are indicated with *
Compounds having a Relative EC50 of X; wherein 100 nM<X<1000 nM; are indicated with **
Compounds having a Relative EC50 of X; wherein 1000 nM<X; are indicated with ***
In the case of `Cc1n[nH]c(C)c1-c1ccc(NC(=O)C(NC(=O)c2ccnn2CCC(C)O)C2CCCCCCC2)cc1` (single isomer, unassigned) [Example 143, N-[1-cyclooctyl-2-[4-(3,5-dimethyl-1H-pyrazol-4-yl)anilino]-2-oxo-ethyl]-2-(3-hydroxybutyl)pyrazole-3-carboxamide], the EC50 (usually the concentration at which the effect is half-maximal) lay in the range of 100 to 1000 nM.
To `Cc1n[nH]c(C)c1-c1ccc(NC(=O)C(NC(=O)c2ccnn2CCC(C)O)C2CCCCCCC2)cc1` (single isomer, unassigned) [Example 144, N-[1-cyclooctyl-2-[4-(3,5-dimethyl-1H-pyrazol-4-yl)anilino]-2-oxo-ethyl]-2-(3-hydroxybutyl)pyrazole-3-carboxamide] belongs below 100 nM; to `Cc1n[nH]c(C)c1-c1ccc(NC(=O)C(NC(=O)c2ccnn2CCC(C)O)C2CCCCCCC2)cc1` (single isomer, unassigned) [Example 145, N-[1-cyclooctyl-2-[4-(3,5-dimethyl-1H-pyrazol-4-yl)anilino]-2-oxo-ethyl]-2-(3-hydroxybutyl)pyrazole-3-carboxamide], below 100 nM; to `Cc1n[nH]c(C)c1-c1ccc(NC(=O)C(NC(=O)c2ccnn2[C@@H](C)CO)C2CCCCCCC2)cc1` (single isomer, unassigned) [Example 150], above 1000 nM.
As for `Cc1n[nH]c(C)c1-c1ccc(NC(=O)C(NC(=O)c2ccnn2[C@@H](C)CO)C2CCCCCCC2)cc1` (single isomer, unassigned) [Example 151], the EC50 is below 100 nM.
In the case of `Cc1n[nH]c(C)c1-c1ccc(NC(=O)C(NC(=O)c2ccnn2C(C)C)C2CCCCCCC2)cc1` (single isomer, unassigned) [Example 152, N-[1-cyclooctyl-2-[4-(3,5-dimethyl-1H-pyrazol-4-yl)anilino]-2-oxo-ethyl]-2-(1-methylethyl)pyrazole-3-carboxamide], the half-maximal effective concentration (EC50) is below 100 nM.
In the case of `Cc1n[nH]c(C)c1-c1ccc(NC(=O)C(NC(=O)c2ccnn2C(C)C)C2CCCCCCC2)cc1` (single isomer, unassigned) [Example 153, N-[1-cyclooctyl-2-[4-(3,5-dimethyl-1H-pyrazol-4-yl)anilino]-2-oxo-ethyl]-2-(1-methylethyl)pyrazole-3-carboxamide] it was 100 to 1000 nM; in that of `CCn1nccc1C(=O)NC(C(=O)Nc1ccc(-c2c(C)n[nH]c2C)cc1)C1CCCCCCC1` (single isomer, unassigned) [Example 154, N-[1-cyclooctyl-2-[4-(3,5-dimethyl-1H-pyrazol-4-yl)anilino]-2-oxo-ethyl]-2-ethyl-pyrazole-3-carboxamide], 100 to 1000 nM.
To `CCn1nccc1C(=O)NC(C(=O)Nc1ccc(-c2c(C)n[nH]c2C)cc1)C1CCCCCCC1` (single isomer, unassigned) [Example 155, N-[1-cyclooctyl-2-[4-(3,5-dimethyl-1H-pyrazol-4-yl)anilino]-2-oxo-ethyl]-2-ethyl-pyrazole-3-carboxamide] belongs below 100 nM; to `Cc1n[nH]c(C)c1-c1ccc(NC(=O)C(NC(=O)c2ccnn2C)C2CCCCCCC2)cc1` (single isomer, unassigned) [Example 156, N-[1-cyclooctyl-2-[4-(3,5-dimethyl-1H-pyrazol-4-yl)anilino]-2-oxo-ethyl]-2-methyl-pyrazole-3-carboxamide], below 100 nM; to `Cc1n[nH]c(C)c1-c1ccc(NC(=O)C(NC(=O)c2ccnn2C)C2CCCCCCC2)cc1` (single isomer, unassigned) [Example 157, N-[1-cyclooctyl-2-[4-(3,5-dimethyl-1H-pyrazol-4-yl)anilino]-2-oxo-ethyl]-2-methyl-pyrazole-3-carboxamide], above 1000 nM.
Turning to `Cc1n[nH]c(C)c1-c1ccc(NC(=O)[C@@H](NC(=O)c2ccnn2C)C(C)CC2CC2)cc1` (single isomer, unassigned) [Example 159], the EC50 lay in the range of 100 to 1000 nM.
To `Cc1n[nH]c(C)c1-c1ccc(NC(=O)[C@@H](NC(=O)c2ccnn2C)C(C)CC2CC2)cc1` (single isomer, unassigned) [Example 160] belongs 100 to 1000 nM.
Regarding `Cc1n[nH]c(C)c1-c1ccc(NC(=O)[C@@H](NC(=O)c2ccnn2[C@H](C)CO)C(C)C2CCC2)cc1` (single isomer, unassigned) [Example 164], the EC50 was 100 to 1000 nM.
To `Cc1n[nH]c(C)c1-c1ccc(NC(=O)[C@@H](NC(=O)c2ccnn2[C@H](C)CO)C(C)C2CCC2)cc1` (single isomer, unassigned) [Example 165] belongs 100 to 1000 nM; to `Cc1n[nH]c(C)c1-c1ccc(NC(=O)[C@@H](NC(=O)c2ccnn2[C@@H](C)CO)C(C)C2CCC2)cc1` (single isomer, unassigned) [Example 173], below 100 nM.
In the case of `Cc1n[nH]c(C)c1-c1ccc(NC(=O)[C@@H](NC(=O)c2ccnn2[C@@H](C)CO)C(C)C2CCC2)cc1` (single isomer, unassigned) [Example 174] it was 100 to 1000 nM.
In the case of `Cc1n[nH]c(C)c1-c1ccc(NC(=O)[C@@H](NC(=O)c2ccnn2C(C)CO)C(C)C(C)(C)C)cc1` (single isomer, unassigned) [Example 175] it was 100 to 1000 nM; in that of `Cc1n[nH]c(C)c1-c1ccc(NC(=O)[C@@H](NC(=O)c2ccnn2C(C)CO)C(C)C(C)(C)C)cc1` (single isomer, unassigned) [Example 176], 100 to 1000 nM; in that of `Cc1n[nH]c(C)c1-c1ccc(NC(=O)[C@@H](NC(=O)c2ccnn2C(C)CO)C(C)C(C)(C)C)cc1` (single isomer, unassigned) [Example 177], 100 to 1000 nM.
In the case of `Cc1n[nH]c(C)c1-c1ccc(NC(=O)[C@@H](NC(=O)c2ccnn2C(C)CO)C(C)C(C)(C)C)cc1` (single isomer, unassigned) [Example 178], the EC50 was below 100 nM.
`Cc1n[nH]c(C)c1-c1ccc(NC(=O)[C@@H](NC(=O)c2ccnn2C(C)CO)C2C3CC4CC(C3)CC2C4)cc1` (single isomer, unassigned) [Example 187]: the EC50 is below 100 nM.
In the case of `Cc1n[nH]c(C)c1-c1ccc(NC(=O)[C@@H](NC(=O)c2ccnn2C(C)CO)C2C3CC4CC(C3)CC2C4)cc1` (single isomer, unassigned) [Example 188] it was below 100 nM; in that of `Cc1n[nH]c(C)c1-c1ccc(NC(=O)[C@@H](NC(=O)c2ccnn2C(C)C)C(C)C2CCC2)cc1` (single isomer, unassigned) [Example 190], below 100 nM; in that of `Cc1n[nH]c(C)c1-c1ccc(NC(=O)[C@@H](NC(=O)c2ccnn2C(C)C)C(C)C2CCC2)cc1` (single isomer, unassigned) [Example 191], 100 to 1000 nM.
To `CCn1nccc1C(=O)N[C@H](C(=O)Nc1ccc(-c2c(C)n[nH]c2C)cc1)C(C)C1CCC1` (single isomer, unassigned) [Example 192] belongs below 100 nM.
In the case of `CCn1nccc1C(=O)N[C@H](C(=O)Nc1ccc(-c2c(C)n[nH]c2C)cc1)C(C)C1CCC1` (single isomer, unassigned) [Example 193] it was 100 to 1000 nM; in that of `Cc1n[nH]c(C)c1-c1ccc(NC(=O)[C@@H](NC(=O)c2ccnn2C)C(C)C2CCC2)cc1` (single isomer, unassigned) [Example 194], below 100 nM.
As to `Cc1n[nH]c(C)c1-c1ccc(NC(=O)[C@@H](NC(=O)c2ccnn2C)C(C)C2CCC2)cc1` (single isomer, unassigned) [Example 195], the EC50 was 100 to 1000 nM.
In the case of `Cc1n[nH]c(C)c1-c1ccc(NC(=O)[C@@H](NC(=O)c2ccnn2C(C)CO)[C@H]2CC[C@H](C)CC2)cc1` (single isomer, unassigned) [Example 204] it was below 100 nM; in that of `Cc1n[nH]c(C)c1-c1ccc(NC(=O)[C@@H](NC(=O)c2ccnn2C(C)CO)[C@H]2CC[C@H](C)CC2)cc1` (single isomer, unassigned) [Example 205], below 100 nM; in that of `Cc1n[nH]c(C)c1-c1ccc(NC(=O)[C@@H](NC(=O)c2ccnn2C(C)CO)[C@@H]2CC(C)(C)CCC2(F)F)cc1` (single isomer, unassigned) [Example 210], below 100 nM.
